Assay results from ChEMBL document CHEMBL4507300 (2021).

Columns and labels:
[1] = molecular target: AP2-associated protein kinase 1 (Homo sapiens) (UniProt Q2M2I8); settings: Compound concentration 1000.0 nM
[2] = test system: Tyrosine-protein kinase ABL1 (Homo sapiens), P00519 [F317I]; settings: Compound concentration 1000.0 nM
[3] = molecular target: Activin receptor type-1 (Homo sapiens) (UniProt Q04771); settings: Compound concentration 1000.0 nM
[4] = molecular target: 5'-AMP-activated protein kinase catalytic subunit alpha-2 (Homo sapiens) (UniProt P54646); settings: Compound concentration 1000.0 nM
[5] = molecular target: Peripheral plasma membrane protein CASK (Homo sapiens) (UniProt O14936); settings: Compound concentration 1000.0 nM
[6] = molecular target: Serine/threonine-protein kinase Chk2 (Homo sapiens) (UniProt O96017); settings: Compound concentration 1000.0 nM
[7] = molecular target: Dual specificity protein kinase CLK2 (Homo sapiens) (UniProt P49760); settings: Compound concentration 1000.0 nM
[8] = molecular target: Casein kinase I isoform gamma-3 (Homo sapiens) (UniProt Q9Y6M4); settings: Compound concentration 1000.0 nM
[9] = molecular target: Serine/threonine-protein kinase DCLK2 (Homo sapiens) (UniProt Q8N568); settings: Compound concentration 1000.0 nM
[10] = molecular target: Serine/threonine-protein kinase 17B (Homo sapiens) (UniProt O94768); settings: Compound concentration 1000.0 nM
[11] = test system: Epidermal growth factor receptor (Homo sapiens), P00533 [UNDEFINED MUTATION]; settings: Compound concentration 1000.0 nM
[12] = molecular target: Ephrin type-A receptor 1 (Homo sapiens) (UniProt P21709); settings: Compound concentration 1000.0 nM
[13] = molecular target: Ephrin type-B receptor 2 (Homo sapiens) (UniProt P29323); settings: Compound concentration 1000.0 nM
[14] = molecular target: Tyrosine-protein kinase Fgr (Homo sapiens) (UniProt P09769); settings: Compound concentration 1000.0 nM
[15] = molecular target: Rhodopsin kinase GRK7 (Homo sapiens) (UniProt Q8WTQ7); settings: Compound concentration 1000.0 nM
[16] = molecular target: Tyrosine-protein kinase HCK (Homo sapiens) (UniProt P08631); settings: Compound concentration 1000.0 nM
[17] = molecular target: Homeodomain-interacting protein kinase 2 (Homo sapiens) (UniProt Q9H2X6); settings: Compound concentration 1000.0 nM
[18] = molecular target: Mitogen-activated protein kinase kinase kinase kinase 1 (Homo sapiens) (UniProt Q92918); settings: Compound concentration 1000.0 nM
[19] = molecular target: Interleukin-1 receptor-associated kinase 3 (Homo sapiens) (UniProt Q9Y616); settings: Compound concentration 1000.0 nM
[20] = molecular target: Tyrosine-protein kinase JAK1 (Homo sapiens) (UniProt P23458); settings: Compound concentration 1000.0 nM
[21] = molecular target: Mitogen-activated protein kinase kinase kinase kinase 5 (Homo sapiens) (UniProt Q9Y4K4); settings: Compound concentration 1000.0 nM
[22] = molecular target: MAP kinase-activated protein kinase 5 (Homo sapiens) (UniProt Q8IW41); settings: Compound concentration 1000.0 nM
[23] = molecular target: MAP kinase-interacting serine/threonine-protein kinase 2 (Homo sapiens) (UniProt Q9HBH9); settings: Compound concentration 1000.0 nM
[24] = molecular target: Myosin light chain kinase (Homo sapiens) (UniProt Q32MK0); settings: Compound concentration 1000.0 nM
[25] = molecular target: Mitogen-activated protein kinase kinase kinase 9 (Homo sapiens) (UniProt P80192); settings: Compound concentration 1000.0 nM
[26] = molecular target: Myosin light chain kinase 2, skeletal/cardiac muscle (Homo sapiens) (UniProt Q9H1R3); settings: Compound concentration 1000.0 nM
[27] = molecular target: Serine/threonine-protein kinase 38 (Homo sapiens) (UniProt Q15208); settings: Compound concentration 1000.0 nM
[28] = molecular target: Mitogen-activated protein kinase kinase kinase 14 (Homo sapiens) (UniProt Q99558); settings: Compound concentration 1000.0 nM
[29] = molecular target: Phosphatidylinositol 5-phosphate 4-kinase type-2 gamma (Homo sapiens) (UniProt Q8TBX8); settings: Compound concentration 1000.0 nM
[30] = molecular target: Serine/threonine-protein kinase PLK4 (Homo sapiens) (UniProt O00444); settings: Compound concentration 1000.0 nM
[31] = molecular target: RAF proto-oncogene serine/threonine-protein kinase (Homo sapiens) (UniProt P04049); settings: Compound concentration 1000.0 nM
[32] = molecular target: Proto-oncogene tyrosine-protein kinase receptor Ret (Homo sapiens) (UniProt P07949); settings: Compound concentration 1000.0 nM
[33] = molecular target: Ribosomal protein S6 kinase alpha-4 (Homo sapiens) (UniProt O75676); settings: Compound concentration 1000.0 nM
[34] = molecular target: Serine/threonine-protein kinase SBK1 (Homo sapiens) (UniProt Q52WX2); settings: Compound concentration 1000.0 nM
[35] = molecular target: NUAK family SNF1-like kinase 2 (Homo sapiens) (UniProt Q9H093); settings: Compound concentration 1000.0 nM
[36] = molecular target: Serine/threonine-protein kinase TAO2 (Homo sapiens) (UniProt Q9UL54); settings: Compound concentration 1000.0 nM
[37] = molecular target: Non-receptor tyrosine-protein kinase TNK1 (Homo sapiens) (UniProt Q13470); settings: Compound concentration 1000.0 nM
[38] = molecular target: BDNF/NT-3 growth factors receptor (Homo sapiens) (UniProt Q16620); settings: Compound concentration 1000.0 nM
[39] = molecular target: Dual specificity protein kinase TTK (Homo sapiens) (UniProt P33981); settings: Compound concentration 1000.0 nM
[40] = molecular target: Serine/threonine-protein kinase 32B (Homo sapiens) (UniProt Q9NY57); settings: Compound concentration 1000.0 nM
[41] = molecular target: 5-hydroxytryptamine receptor 1A (Homo sapiens) (UniProt P08908); settings: Compound concentration 10.0 uM
[42] = molecular target: 5-hydroxytryptamine receptor 2C (Homo sapiens) (UniProt P28335); settings: Compound concentration 10.0 uM
[43] = molecular target: D(1A) dopamine receptor (Homo sapiens) (UniProt P21728); settings: Compound concentration 10.0 uM
[44] = molecular target: Alpha-2A adrenergic receptor (Homo sapiens) (UniProt P08913); settings: Compound concentration 10.0 uM
[45] = molecular target: Muscarinic acetylcholine receptor M1 (Homo sapiens) (UniProt P11229); settings: Compound concentration 10.0 uM

5-hydroxytryptamine receptor 1A (Homo sapiens), sequence (P08908 whole entry): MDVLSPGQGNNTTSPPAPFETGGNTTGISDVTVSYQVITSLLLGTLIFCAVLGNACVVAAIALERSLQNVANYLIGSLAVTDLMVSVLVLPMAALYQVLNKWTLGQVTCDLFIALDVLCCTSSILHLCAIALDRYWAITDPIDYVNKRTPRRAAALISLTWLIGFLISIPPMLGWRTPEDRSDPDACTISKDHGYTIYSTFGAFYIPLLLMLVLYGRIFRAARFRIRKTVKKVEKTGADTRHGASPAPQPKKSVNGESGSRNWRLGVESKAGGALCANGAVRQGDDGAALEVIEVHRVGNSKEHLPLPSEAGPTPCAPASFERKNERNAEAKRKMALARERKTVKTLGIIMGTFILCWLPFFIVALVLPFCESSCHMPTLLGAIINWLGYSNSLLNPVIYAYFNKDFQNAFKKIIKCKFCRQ
Mitogen-activated protein kinase kinase kinase 14 (Homo sapiens), sequence (Q99558 whole entry, looked up): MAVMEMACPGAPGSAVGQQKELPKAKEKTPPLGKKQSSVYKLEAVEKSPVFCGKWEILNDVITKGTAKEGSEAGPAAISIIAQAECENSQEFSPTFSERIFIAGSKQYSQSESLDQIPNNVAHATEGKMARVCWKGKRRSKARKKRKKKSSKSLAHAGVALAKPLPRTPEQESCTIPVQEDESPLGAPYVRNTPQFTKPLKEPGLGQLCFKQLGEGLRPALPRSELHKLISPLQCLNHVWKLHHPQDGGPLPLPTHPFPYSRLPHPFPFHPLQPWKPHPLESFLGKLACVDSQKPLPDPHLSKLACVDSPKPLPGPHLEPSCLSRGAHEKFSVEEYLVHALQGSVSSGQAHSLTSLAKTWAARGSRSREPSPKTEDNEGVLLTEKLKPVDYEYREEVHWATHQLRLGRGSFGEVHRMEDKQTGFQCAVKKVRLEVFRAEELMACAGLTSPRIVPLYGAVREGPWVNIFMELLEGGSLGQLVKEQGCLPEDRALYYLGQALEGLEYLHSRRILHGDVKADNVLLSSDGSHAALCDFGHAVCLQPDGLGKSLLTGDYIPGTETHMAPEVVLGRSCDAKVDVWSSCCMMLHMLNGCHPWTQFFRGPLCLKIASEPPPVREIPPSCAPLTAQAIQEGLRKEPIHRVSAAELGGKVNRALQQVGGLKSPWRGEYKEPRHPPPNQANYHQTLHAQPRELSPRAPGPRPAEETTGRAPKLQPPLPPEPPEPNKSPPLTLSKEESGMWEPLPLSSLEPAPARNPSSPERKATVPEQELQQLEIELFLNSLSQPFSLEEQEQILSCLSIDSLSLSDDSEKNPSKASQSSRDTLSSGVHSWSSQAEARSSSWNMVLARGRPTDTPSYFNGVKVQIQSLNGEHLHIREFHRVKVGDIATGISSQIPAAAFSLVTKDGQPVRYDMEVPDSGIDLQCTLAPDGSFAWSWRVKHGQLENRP
Mitogen-activated protein kinase kinase kinase kinase 1 (Homo sapiens), sequence (Q92918 whole entry, looked up): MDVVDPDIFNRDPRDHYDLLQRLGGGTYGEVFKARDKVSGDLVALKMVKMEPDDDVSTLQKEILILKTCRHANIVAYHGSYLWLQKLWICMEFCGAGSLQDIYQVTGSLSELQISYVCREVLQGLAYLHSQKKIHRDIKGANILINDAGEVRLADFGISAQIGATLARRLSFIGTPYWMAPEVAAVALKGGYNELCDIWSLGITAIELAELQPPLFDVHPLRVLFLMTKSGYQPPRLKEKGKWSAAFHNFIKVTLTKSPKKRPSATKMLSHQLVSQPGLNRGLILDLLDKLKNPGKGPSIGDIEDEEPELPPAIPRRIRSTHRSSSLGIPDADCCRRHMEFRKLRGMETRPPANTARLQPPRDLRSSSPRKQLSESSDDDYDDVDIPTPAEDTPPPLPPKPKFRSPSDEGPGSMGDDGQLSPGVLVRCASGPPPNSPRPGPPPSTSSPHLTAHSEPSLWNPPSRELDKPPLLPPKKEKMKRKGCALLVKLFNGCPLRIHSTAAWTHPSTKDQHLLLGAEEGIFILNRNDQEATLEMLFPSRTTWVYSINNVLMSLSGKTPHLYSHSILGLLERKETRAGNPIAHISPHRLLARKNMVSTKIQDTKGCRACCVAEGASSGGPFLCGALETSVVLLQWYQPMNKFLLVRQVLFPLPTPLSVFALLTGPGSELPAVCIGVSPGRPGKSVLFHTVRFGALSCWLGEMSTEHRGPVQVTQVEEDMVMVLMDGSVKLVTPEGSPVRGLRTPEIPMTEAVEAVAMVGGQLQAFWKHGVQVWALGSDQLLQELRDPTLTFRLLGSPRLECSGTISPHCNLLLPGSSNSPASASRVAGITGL
Alpha-2A adrenergic receptor (Homo sapiens), sequence (P08913 whole entry): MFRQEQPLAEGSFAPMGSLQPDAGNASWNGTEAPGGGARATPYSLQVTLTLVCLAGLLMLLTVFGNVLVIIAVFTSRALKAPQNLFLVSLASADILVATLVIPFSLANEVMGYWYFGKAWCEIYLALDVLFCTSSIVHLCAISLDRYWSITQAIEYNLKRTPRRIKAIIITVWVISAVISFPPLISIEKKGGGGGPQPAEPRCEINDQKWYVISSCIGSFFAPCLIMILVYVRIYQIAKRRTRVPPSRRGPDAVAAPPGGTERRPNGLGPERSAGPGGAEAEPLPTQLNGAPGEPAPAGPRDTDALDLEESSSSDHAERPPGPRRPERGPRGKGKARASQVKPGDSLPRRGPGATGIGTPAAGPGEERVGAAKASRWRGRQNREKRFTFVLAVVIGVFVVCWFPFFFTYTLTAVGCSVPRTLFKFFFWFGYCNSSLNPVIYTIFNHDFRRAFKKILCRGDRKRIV
5'-AMP-activated protein kinase catalytic subunit alpha-2 (Homo sapiens), sequence (P54646 whole entry, looked up): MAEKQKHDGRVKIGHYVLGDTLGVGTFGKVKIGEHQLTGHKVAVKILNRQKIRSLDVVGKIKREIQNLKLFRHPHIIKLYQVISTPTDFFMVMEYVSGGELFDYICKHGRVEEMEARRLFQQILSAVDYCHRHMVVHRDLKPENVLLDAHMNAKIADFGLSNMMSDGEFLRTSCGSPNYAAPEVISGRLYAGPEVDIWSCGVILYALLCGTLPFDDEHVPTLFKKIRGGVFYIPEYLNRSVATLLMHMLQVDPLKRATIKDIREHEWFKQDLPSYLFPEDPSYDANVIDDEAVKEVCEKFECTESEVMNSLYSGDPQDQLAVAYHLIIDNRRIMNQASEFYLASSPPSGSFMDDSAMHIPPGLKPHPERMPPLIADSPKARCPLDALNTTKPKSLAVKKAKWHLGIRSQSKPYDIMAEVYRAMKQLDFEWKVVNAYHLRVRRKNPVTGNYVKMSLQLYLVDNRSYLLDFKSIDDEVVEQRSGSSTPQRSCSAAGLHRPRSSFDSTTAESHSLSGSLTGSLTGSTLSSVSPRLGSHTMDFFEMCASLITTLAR
AP2-associated protein kinase 1 (Homo sapiens), sequence (Q2M2I8 whole entry, looked up): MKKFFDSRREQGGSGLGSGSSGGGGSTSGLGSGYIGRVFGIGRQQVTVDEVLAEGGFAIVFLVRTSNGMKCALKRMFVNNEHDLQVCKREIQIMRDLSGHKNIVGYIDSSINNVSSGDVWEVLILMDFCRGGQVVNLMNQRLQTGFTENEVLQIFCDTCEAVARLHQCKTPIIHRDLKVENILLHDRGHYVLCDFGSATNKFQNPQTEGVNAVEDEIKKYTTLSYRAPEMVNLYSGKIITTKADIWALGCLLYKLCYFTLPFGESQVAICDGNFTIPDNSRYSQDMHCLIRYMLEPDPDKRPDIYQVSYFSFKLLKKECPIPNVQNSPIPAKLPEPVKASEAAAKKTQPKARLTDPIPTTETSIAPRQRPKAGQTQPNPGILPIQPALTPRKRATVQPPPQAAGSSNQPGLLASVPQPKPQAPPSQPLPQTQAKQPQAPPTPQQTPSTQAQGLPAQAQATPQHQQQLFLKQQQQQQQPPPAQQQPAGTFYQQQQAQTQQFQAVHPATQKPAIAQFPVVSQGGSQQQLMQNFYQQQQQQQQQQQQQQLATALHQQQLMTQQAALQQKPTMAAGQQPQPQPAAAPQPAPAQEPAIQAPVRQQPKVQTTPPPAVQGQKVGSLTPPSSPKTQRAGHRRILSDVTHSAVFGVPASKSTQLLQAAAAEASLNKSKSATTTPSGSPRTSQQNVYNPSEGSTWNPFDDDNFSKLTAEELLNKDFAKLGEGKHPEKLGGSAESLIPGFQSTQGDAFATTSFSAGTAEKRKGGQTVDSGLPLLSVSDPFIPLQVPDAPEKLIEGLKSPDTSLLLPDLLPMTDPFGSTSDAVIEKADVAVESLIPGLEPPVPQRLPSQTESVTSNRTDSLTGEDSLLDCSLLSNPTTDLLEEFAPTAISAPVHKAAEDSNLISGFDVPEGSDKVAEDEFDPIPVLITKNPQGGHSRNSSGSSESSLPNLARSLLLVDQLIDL
Serine/threonine-protein kinase SBK1 (Homo sapiens), sequence (Q52WX2 whole entry): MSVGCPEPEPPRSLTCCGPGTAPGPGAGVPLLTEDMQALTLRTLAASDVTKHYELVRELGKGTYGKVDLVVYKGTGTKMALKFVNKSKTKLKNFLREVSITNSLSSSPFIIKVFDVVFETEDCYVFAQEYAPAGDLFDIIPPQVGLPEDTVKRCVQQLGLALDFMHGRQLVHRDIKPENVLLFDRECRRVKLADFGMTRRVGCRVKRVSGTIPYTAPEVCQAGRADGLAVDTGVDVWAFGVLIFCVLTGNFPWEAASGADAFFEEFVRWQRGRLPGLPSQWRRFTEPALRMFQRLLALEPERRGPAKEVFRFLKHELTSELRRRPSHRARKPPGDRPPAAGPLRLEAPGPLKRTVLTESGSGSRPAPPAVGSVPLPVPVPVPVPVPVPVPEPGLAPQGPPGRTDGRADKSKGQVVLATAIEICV
Casein kinase I isoform gamma-3 (Homo sapiens), sequence (Q9Y6M4 whole entry, looked up, canonical isoform): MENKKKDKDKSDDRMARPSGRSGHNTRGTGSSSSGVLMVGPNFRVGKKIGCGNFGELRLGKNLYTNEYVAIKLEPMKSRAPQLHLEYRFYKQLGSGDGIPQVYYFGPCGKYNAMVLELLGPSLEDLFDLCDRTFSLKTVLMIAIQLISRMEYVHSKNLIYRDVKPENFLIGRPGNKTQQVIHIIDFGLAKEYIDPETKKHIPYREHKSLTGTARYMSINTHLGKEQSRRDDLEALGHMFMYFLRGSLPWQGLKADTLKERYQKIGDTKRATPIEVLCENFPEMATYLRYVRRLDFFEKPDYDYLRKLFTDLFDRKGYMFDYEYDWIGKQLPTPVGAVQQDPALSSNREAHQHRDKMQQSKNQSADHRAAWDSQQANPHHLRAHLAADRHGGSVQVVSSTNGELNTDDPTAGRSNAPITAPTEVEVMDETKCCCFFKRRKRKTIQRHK

COc1cccc(CNC(=O)c2nc3scc(COCc4ccc(C(=O)O)cc4)c3c(=O)[nH]2)c1 [T-26c]
active: inhibition [45] 53.4%
inactive: residual activity [1] 100% | residual activity [2] 62.4% | residual activity [3] 94.3% | residual activity [4] 70.5% | residual activity [5] 67.3% | residual activity [6] 92% | residual activity [7] 92.4% | residual activity [8] 96.6% | residual activity [9] 100% | residual activity [10] 94.4% | residual activity [11] 80.4% | residual activity [12] 79.9% | residual activity [13] 95.7% | residual activity [14] 90% | residual activity [15] 67% | residual activity [16] 79.7% | residual activity [17] 72.9% | residual activity [18] 100% | residual activity [19] 97.5% | residual activity [20] 93.9% | residual activity [21] 87.3% | residual activity [22] 93.8% | residual activity [23] 73.2% | residual activity [24] 72.8% | residual activity [25] 100% | residual activity [26] 100% | residual activity [27] 72% | residual activity [28] 100% | residual activity [29] 74.7% | residual activity [30] 83% | residual activity [31] 85.6% | residual activity [32] 72.3% | residual activity [33] 82.3% | residual activity [34] 53.7% | residual activity [35] 76.4% | residual activity [36] 59.8% | residual activity [37] 100% | residual activity [38] 67.1% | residual activity [39] 92.8% | residual activity [40] 93.4% | inhibition [41] 7.7% | inhibition [42] 12.5% | inhibition [43] -6.24% | inhibition [44] 17.2%
